Measurements: US20070259916A1, “mGluR5 modulators II” (AstraZeneca AB, priority 2006, published 2007)
pIC50: −log10 of the molar value.

Legend:
[1] = Determination of brain to plasma ratio in rat; assay type: in vivo; conditions: brain and plasma, female Sprague Dawley rats, drug in brain over drug in plasma, read-out: Brain/Plasma Ratio of compound in Rat
Experimental: Brain to plasma ratios are estimated in female Sprague Dawley rats. The compound is dissolved in water or another appropriate vehicle. For determination of brain to plasma ratio the compound is administrated as a subcutaneous, or an intravenous bolus injection, or an intravenous infusion, or an oral administration. At a predetermined time point after the administration a blood sample is taken with cardiac puncture. The rat is terminated by cutting the heart open, and the brain is immediately retained. The blood samples are collected in heparinized tubes and centrifuged within 30 minutes, in order to separate the plasma from the blood cells. The plasma is transferred to 96-well plates and stored at −20° C. until analysis. The brains are divided in half, and each half is placed in a pre-tarred tube and stored at −20° C. until analysis. Prior to the analysis, the brain samples are thawed and 3 ml/g brain tissue of distilled water is added to the tubes. The brain samples are sonicated in an ice bath until the samples are homogenized. Both brain and plasma samples are precipitated with acetonitrile. After centrifugation, the supernatant is diluted with 0.2% formic acid. […] After reconstitution of the residuals the samples are ready for injection onto the HPLC column.

human mGluR5d = molecular target: T1, human mGluR5d (Homo sapiens, UniProt P41594); test: FLIPR assay, functional assessment of mGluR5 antagonism (intracellular calcium mobilization); assay type: cell-based; conditions: cells expressing human mGluR5d; read-out: FLIPR hmGluR5d
T1 construct: expressed in transfected cells
T1 sequence (P41594 21-942 isoform P41594-3 limits assumed): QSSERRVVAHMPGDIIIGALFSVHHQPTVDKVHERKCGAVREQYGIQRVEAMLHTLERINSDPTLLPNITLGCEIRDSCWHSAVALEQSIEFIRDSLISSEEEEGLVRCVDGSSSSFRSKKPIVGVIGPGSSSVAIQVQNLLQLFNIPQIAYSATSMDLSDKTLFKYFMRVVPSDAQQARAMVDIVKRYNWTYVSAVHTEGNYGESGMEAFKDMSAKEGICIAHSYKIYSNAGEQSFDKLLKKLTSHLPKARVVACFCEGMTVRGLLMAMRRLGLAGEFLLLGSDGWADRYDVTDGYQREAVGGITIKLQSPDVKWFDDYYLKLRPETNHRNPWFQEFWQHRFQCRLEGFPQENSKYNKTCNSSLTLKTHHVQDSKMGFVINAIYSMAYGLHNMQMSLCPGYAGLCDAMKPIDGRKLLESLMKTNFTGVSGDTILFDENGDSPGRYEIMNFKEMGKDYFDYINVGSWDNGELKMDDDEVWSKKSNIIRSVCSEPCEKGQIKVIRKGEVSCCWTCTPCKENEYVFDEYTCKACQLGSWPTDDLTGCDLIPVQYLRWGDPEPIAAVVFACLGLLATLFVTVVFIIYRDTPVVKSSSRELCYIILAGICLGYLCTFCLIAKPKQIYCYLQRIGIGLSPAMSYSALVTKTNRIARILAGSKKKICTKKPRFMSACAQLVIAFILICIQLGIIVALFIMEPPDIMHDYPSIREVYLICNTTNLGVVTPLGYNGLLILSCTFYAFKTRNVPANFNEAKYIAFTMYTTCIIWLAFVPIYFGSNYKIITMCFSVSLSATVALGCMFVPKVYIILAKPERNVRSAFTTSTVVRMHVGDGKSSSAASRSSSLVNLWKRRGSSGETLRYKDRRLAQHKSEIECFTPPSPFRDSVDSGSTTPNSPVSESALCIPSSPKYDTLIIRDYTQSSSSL
Description: Functional Assessment of mGluR5 Antagonism in Cell Lines Expressing mGluR5D
The properties of the compounds of the invention can be analyzed using standard assays for pharmacological activity. Examples of glutamate receptor assays are well known in the art as described in for example Aramori et al., Neuron 8:757 (1992), Tanabe et al., Neuron 8:169 (1992), Miller et al., J. Neuroscience 15: 6103 (1995), Balazs, et al., J. Neurochemistry 69:151 (1997). The methodology described in these publications is incorporated herein by reference. Conveniently, the compounds of the invention can be studied by means of an assay (FLIPR) that measures the mobilization of intracellular calcium, [Ca^2+] in cells expressing mGluR5 or another assay (IP3) that measures inositol phosphate turnover.
Cells expressing human mGluR5d as described in WO97/05252 are seeded at a density of 100,000 cells per well on collagen coated clear bottom 96-well plates with black sides and experiments are done 24 h following seeding. […] The fluorescence signal is sampled 50 times at 1 second intervals followed by 3 samples at 5 second intervals immediately after each of the two additions. Responses are measured as the difference between the peak height of the response to agonist, less the background fluorescence within the sample period. […]

| Kp [1] | pIC50 (human mGluR5d) | Compound |
| --- | --- | --- |
| 0.085 | 6.71 | Cn1c(-c2cccnc2)nnc1N1CCCC[C@H]1c1nnn(-c2cccc(Cl)c2)n1 [Example 20.2, 3-(5-{(S)-2-[2-(3-Chloro-phenyl)-2H-tetrazol-5-yl]-piperidin-1-yl}-4-methyl-4H-[1,2,4]triazol-3-yl)-pyridine] |
| 0.06 | 6.96 | COc1cc(-c2nnc(N3CCCCC3c3nnn(-c4cccc(C#N)c4)n3)n2C)ccn1 (stereo not shown) [Example 19.11, 3-(5-{1-[5-(2-Methoxy-pyridin-4-yl)-4-methyl-4H-[1,2,4]triazol-3-yl]-piperidin-2-yl}-tetrazol-2-yl)-benzonitrile] |
